# Results from US4771057A, “Reduced pyridyl derivatives with cardiovascular regulating properties” (University of Alberta, priority 1986, dated 1988).
# System: guinea pig ileal longitudinal smooth muscle
# Assay: Calcium channel antagonist testing: inhibition of muscarinic receptor-mediated Ca2+-dependent contraction (response to CD) of guinea pig ileal longitudinal smooth muscle
# Assay type: cell-based
# Details: Cavia porcellus; 50% inhibition of tonic contraction to CD 5×10^-7 M; compound added 10 min before CD; 37° C., pH 7.4; read-out: Calcium channel antagonist act., inhib. act. on contractile response to CD, ID50
# Procedure: Male albino guinea pigs (body weight 300-450 g) were sacrificed by decapitation. The intestine was removed above the ileo-caecal junction. Longitudinal smooth muscle segments of 2 cm length were mounted under a resting tension of 300-400 mg. […] The muscles were equilibrated for 1 h with a solution change every 15 min. Two successive control contractions were elicited at 15 min intervals with 5×10^-7 M cis-2-methyl- 4-dimethylaminomethyl-1,3-dioxolane methiodide (CD). The isometric contractions were recorded with a force displacement transducer (FT 03C) on a GRASS physiograph. The means of the two contractile responses was taken as the 100% value for the tonic (slow) component of the response. The muscle was washed with Hepes saline solution and was allowed to re-equilibrate. The calcium antagonist (test compound) was added ten min before the dose-response for CD was determined. The drug-induced inhibition of contraction was expressed as percent of control. The ID50 values were graphically determined from the concentration-response curves.
row,Compound,IC50
1,"CC1=C(C#N)C(c2cccnc2)C(C#N)=C(C)N1 [Compound D-27, 3,5-dicyano-2,6-dimethyl-4-(3'-pyridyl)-1,4-dihydropyridine]",357 µM
2,"CC1=C(C#N)C(c2ccncc2)C(C#N)=C(C)N1 [Compound D-28, 3,5-dicyano-2,6-dimethyl-4-(4'-pyridyl)-1,4-dihydropyridine]",130 µM
3,"CC1=C(C(=O)OCC(C)C)C(C2=CCN(C(=O)Oc3ccccc3)C=C2)C(C(=O)OCC(C)C)=C(C)N1 [Compound D-56, Diisobutyl 2,6-dimethyl-4-[4'-(N--phenoxycarbonyl)]-1,4-di-hydropyridine-3,5-dicarboxylate]",0.51 µM
4,"COC(=O)N1C=CC(C2C(C#N)=C(C)NC(C)=C2C#N)=CC1 [Compound D-59, 3,5-Dicyano-2,6-dimethyl-4-[4'-(N--methoxycarbonyl)]-1,4-dihydropyridine]",67.5 µM
5,"COC(=O)C1=C(C)NC(C)=C(C(=O)OCC(C)C)C1C1=CCN(C(=O)OC)C=C1 [Compound D-60, 3-Isobutyl-5-methyl 2,6-dimethyl-4-[4'-(N--methoxycarbonyl)]-1,4-dihydropyridine-3,5-dicarboxylate]",1.76 µM
6,"COC(=O)C1=C(C)NC(C)=C(C(=O)OCC(C)C)C1C1=CCN(C(=O)Oc2ccccc2)C=C1 [Compound D-61, 3-Isobutyl-5-methyl 2,6-dimethyl-4-[4'-(N--phenoxycarbonyl)]-1,4-dihydropyridine-3,5-dicarboxylate]",81 µM
7,COC(=O)C1=C(C)NC(C)=C(C(=O)OC)C1C1CC=CCN1C [Compound D-64],64.7 µM
8,"CCOC(=O)C1=C(C)NC(C)=C(C(=O)OCC)C1C1CC=CCN1C [Compound D-65, Diethyl 2,6-dimethyl-4-[2'-(N--methyl-1',2',3',6'-tetrahydropyridyl)]-1,4-dihydropyridine-3,5-dicarboxylate]",13 µM
9,"COC(=O)C1=C(C)NC(C)=C(C(=O)OC)C1C1=CCN(C)CC1 [Compound D-66, Dimethyl 2,6-dimethyl-4-[4'-(N--methyl-1',2',3',6'-tetrahydropyridyl)]-1,4-dihydropyridine-3,5-dicarboxylate]",181 µM
10,"CCOC(=O)C1=C(C)NC(C)=C(C(=O)OCC)C1C1=CCN(C)CC1 [Compound D-67, Diethyl 2,6-dimethyl-4-[4'-(N--methyl-1',2',3',6'-tetrahydropyridyl)]-1,4-dihydropyridine-3,5-dicarboxylate]",4.96 µM
11,"COC(=O)C1=C(C)NC(C)=C(C(=O)OC)C1C1=CCCN(C)C1 [Compound D-68, Dimethyl 2,6-dimethyl-4-[5'-(N--methyl-1',2',3',6'-tetrahydropyridyl)]-1,4-dihydropyridine-3,5-dicarboxylate]",3.43 µM
12,"CCOC(=O)C1=C(C)NC(C)=C(C(=O)OCC)C1C1=CCCN(C)C1 [Compound D-69, Diethyl 2,6-dimethyl-4-[5'-(N--methyl-1',2',3',6'-tetrahydropyridyl)]-1,4-dihydropyridine-3,5-dicarboxylate]",1.1 µM
13,"COC(=O)C1=C(C)N(C)C(C)C(C(=O)OC)=C1c1ccccc1 (centres unmarked) [Compound S-1, Dimethyl 1,2,6-trimethyl-4-phenyl-1,2-dihydropyridine-3,5-dicarboxylate]",2.15 µM
14,"COC(=O)C1=C(C)N(C)C(C)C(C(=O)OC)=C1c1cccc(C(F)(F)F)c1 (centres unmarked) [Compound S-2, Dimethyl 1,2,6-trimethyl-4-(3-trifluoromethylphenyl)-1,2-dihydropyridine-3,5-dicarboxylate]",3.5 µM
15,"COC(=O)C1=C(C)N(C)C(C)C(C(=O)OC)=C1c1ccccc1C(F)(F)F (centres unmarked) [Compound S-3, Dimethyl 1,2,6-trimethyl-4-(2-trifluoromethylphenyl)-1,2-dihydropyridine-3,5-dicarboxylate]",12 µM
16,"COC(=O)C1=C(C)N(C)C(C)C(C(=O)OC)=C1c1ccc([N+](=O)[O-])cc1 (centres unmarked) [Compound S-4, Dimethyl 1,2,6-trimethyl-4-(4-nitrophenyl)-1,2-dihydropyridine-3,5-dicarboxylate]",23.5 µM

# Same assay, conditions: conclusion from Table 7
row,Compound,"calcium channel antagonist activity, comparison to Nifedipine (TM)"
1,"CC1=C(C(=O)OCC(C)C)C(C2=CCN(C(=O)Oc3ccccc3)C=C2)C(C(=O)OCC(C)C)=C(C)N1 [Compound D-56, Diisobutyl 2,6-dimethyl-4-[4'-(N--phenoxycarbonyl)]-1,4-di-hydropyridine-3,5-dicarboxylate]","active calcium channel antagonists, being comparable to Nifedipine (TM)"
